Laboratory results reported in patent US20260193271A1, “PAN-KRAS INHIBITOR COMPOUND” (ADLAI NORTYE BIOPHARMA CO., LTD., priority 2022, published 2026).

tested on: AsPC-1 (G12D); assay: In vitro cell proliferation inhibition test (CellTiter-Glo), AsPC-1; type: cell-based; details: AsPC-1 pancreas cell line, KRAS (p.G12D), 72 h co-incubation
Text: Test Example 1: In Vitro Cell Proliferation Inhibition Test
Due to the diversity of RAS mutations and in order to evaluate the activity of compounds in different RAS mutation cell lines, we selected KRAS^WT, KRAS^G12C, KRAS^G12D, KRAS^G12V and BRAF mutation cell lines (see the table below) for in vitro activity evaluation and screening of compounds.
Protocol: CellTiter-Glo® Cell Luminescent Viability Assay (Promega)
According to the doubling time of different cell lines, different numbers of cells (1000-5000 cells/well) were seeded in 96-well plates containing 180 μl of corresponding culture medium and cultured overnight in a cell culture incubator at 37° C. with 5% CO2. On the second day, the test compound was pre-diluted 3-fold with culture medium, with the highest concentration being 100 μM, for a total of 10 concentration gradients; then 20 μl of culture medium containing different concentrations of the compound was added to the cells in the 96-well plate to ensure that the final concentration of the compound was up to 10 μM, with 10 concentration gradients of 3-fold dilution. After the cells and compounds were co-incubated for 72 h, the 96-well plate was removed from the incubator and equilibrated at room temperature for 30 min. Then, 25 μl of CellTiter-Glo® Reagent was added to each well and mixed thoroughly. The mixture was incubated at room temperature for 10 min, and then 100 μl of the sample was transferred to a white 96-well plate (OptiPlate™-96, PerkinElmer). The […] signal value was read using a multi-function microplate reader (SpectraMax® i3x, Molecular devices). The signal values were then standardized, and the curve was fitted using a four-parameter regression equation to calculate the half maximal inhibitory concentration (IC50) of the compound on the cell line.

Row | Compound | IC50
1 | CCn1c(-c2cc(-c3ccc(CN4CCOCC4)cc3)cnc2C(C)OC)c2c3cc(ccc31)-c1csc(n1)CC(NC(=O)C1C(C)C1C)C(=O)N1CCCC(N1)C(=O)OCC(C)(C)C2 [Compound 1′, (1r,2R,3S)-N-((6^3S,4S,Z)-1^1-ethyl-1^2-(2-((S)-1-methoxyethyl)-5-(4-(morpholinomethyl)phenyl)pyridin-3-yl)-10,10-dimethyl-5,7-dioxo-6^1,6^2,6^3,6^4,6^5,6^6-hexahydro-1^1H-8-oxa-2(4,2)-thiazola-1(5,3)-indola-6(1,3)-pyridazinacycloundecaphane-4-yl)-2,3-dimethylcyclopropane-1-carboxamide] | 4770 nM
2 | CCn1c(-c2cc(-c3ccc4c(c3)CCN(C)C4)cnc2C(C)OC)c2c3cc(ccc31)-c1csc(n1)CC(NC(=O)C1C(C)C1C)C(=O)N1CCCC(N1)C(=O)OCC(C)(C)C2 [Compound 3′, (1r,2R,3S)-N-((6^3S,4S,Z)-1^1-ethyl-1^2-(2-((S)-1-methoxyethyl)-5-(2-methyl-1,2,3,4-tetrahydroisoquinolin-6-yl)pyridin-3-yl)-10,10-dimethyl-5,7-dioxo-6^1,6^2,6^3,6^4,6^5,6^6-hexahydro-1^1H-8-oxa-2(4,2)-thiazola-1(5,3)-indola-6(1,3)-pyridazinacycloundecaphane-4-yl)-2,3-dimethylcyclopropane-1-carboxamide] | 1230 nM
3 | CCn1c(-c2cc(-c3cccc(CN(C)C)c3)cnc2[C@H](C)OC)c2c3cc(ccc31)-c1csc(n1)C[C@H](NC(=O)[C@H]1[C@H](C)[C@@H]1C)C(=O)N1CCC[C@H](N1)C(=O)OCC(C)(C)C2 [Compound 4′, (1r,2R,3S)-N-((6^3S,4S,Z)-1^2-(5-(3-((dimethylamino)methyl)phenyl)-2-((S)-1-methoxyethyl)pyridin-3-yl)-1^1-ethyl-10,10-dimethyl-5,7-dioxo-6^1,6^2,6^3,6^4,6^5,6^6-hexahydro-1^1H-8-oxa-2(4,2)-thiazola-1(5,3)-indola-6(1,3)-pyridazinacycloundecaphane-4-yl)-2,3-dimethylcyclopropane-1-carboxamide] | 646 nM
4 | CCn1c(-c2cc(-c3ccc(CN4CCOCC4)nc3)cnc2C(C)OC)c2c3cc(ccc31)-c1csc(n1)CC(NC(=O)C1CC1C)C(=O)N1CCCC(N1)C(=O)OCC(C)(C)C2 [Compound 5′, (1S,2S)-N-((6^3S,4S,Z)-1^1-ethyl-1^2-(6-((S)-1-methoxyethyl)-6′-(morpholinomethyl)-[3,3′-bipyridin]-5-yl)-10,10-dimethyl-5,7-dioxo-6^1,6^2,6^3,6^4,6^5,6^6-hexahydro-1^1H-8-oxa-2(4,2)-thiazola-1(5,3)-indola-6(1,3)-pyridazinacycloundecaphane-4-yl)-2-methylcyclopropane-1-carboxamide] | 99 nM
5 | CCn1c(-c2cc(-c3ccc(CN4CCC(F)C4)cc3)cnc2C(C)OC)c2c3cc(ccc31)-c1csc(n1)CC(NC(=O)C1CC1C)C(=O)N1CCCC(N1)C(=O)OCC(C)(C)C2 [Compound 6′, (1S,2S)-N-((6^3S,4S,Z)-1^1-ethyl-1^2-(5-(4-(((R)-3-fluoropyrrolidin-1-yl)methyl)phenyl)-2-((S)-1-methoxyethyl)pyridin-3-yl)-10,10-dimethyl-5,7-dioxo-6^1,6^2,6^3,6^4,6^5,6^6-hexahydro-1^1H-8-oxa-2(4,2)-thiazola-1(5,3)-indola-6(1,3)-pyridazinacycloundecaphane-4-yl)-2-methylcyclopropane-1-carboxamide] | 1460 nM
6 | CCn1c(-c2cc(-c3ccc(CN4CCC(F)(F)CC4)cc3)cnc2C(C)OC)c2c3cc(ccc31)-c1csc(n1)CC(NC(=O)C1CC1C)C(=O)N1CCCC(N1)C(=O)OCC(C)(C)C2 [Compound 7′, (1S,2S)-N-((6^3S,4S,Z)-1^2-(5-(4-((4,4-difluoropiperidin-1-yl)methyl)phenyl)-2-((S)-1-methoxyethyl)pyridin-3-yl)-1^1-ethyl-10,10-dimethyl-5,7-dioxo-6^1,6^2,6^3,6^4,6^5,6^6-hexahydro-1^1H-8-oxa-2(4,2)-thiazola-1(5,3)-indola-6(1,3)-pyridazinacycloundecaphane-4-yl)-2-methylcyclopropane-1-carboxamide] | > 10000 nM
7 | CCn1c(-c2cc(-c3ccc(CN4CCN(C)CC4)cc3)cnc2[C@H](C)OC)c2c3cc(ccc31)-c1csc(n1)C[C@H](NC(=O)[C@H]1C[C@@H]1C)C(=O)N1CCC[C@H](N1)C(=O)OCC(C)(C)C2 [Compound 8′, (1S,2S)-N-((6^3S,4S,Z)-1^1-ethyl-1^2-(2-((S)-1-methoxyethyl)-5-(4-((4-methylpiperazin-1-yl)methyl)phenyl)pyridin-3-yl)-10,10-dimethyl-5,7-dioxo-6^1,6^2,6^3,6^4,6^5,6^6-hexahydro-1^1H-8-oxa-2(4,2)-thiazola-1(5,3)-indola-6(1,3)-pyridazinacycloundecaphane-4-yl)-2-methylcyclopropane-1-carboxamide] | 236 nM
8 | CCn1c(-c2cc(-c3cccc(CN4CCOCC4)c3)cnc2C(C)OC)c2c3cc(ccc31)-c1csc(n1)CC(NC(=O)C1CC1C)C(=O)N1CCCC(N1)C(=O)OCC(C)(C)C2 [Compound 9′, (1S,2S)-N-((6^3S,4S,Z)-1^1-ethyl-1^2-(2-((S)-1-methoxyethyl)-5-(3-(morpholinomethyl)phenyl)pyridin-3-yl)-10,10-dimethyl-5,7-dioxo-6^1,6^2,6^3,6^4,6^5,6^6-hexahydro-1^1H-8-oxa-2(4,2)-thiazola-1(5,3)-indola-6(1,3)-pyridazinacycloundecaphane-4-yl)-2-methylcyclopropane-1-carboxamide] | 836 nM
9 | CCn1c(-c2cc(-c3ccc4c(c3)CN(C)CC4)cnc2C(C)OC)c2c3cc(ccc31)-c1csc(n1)CC(NC(=O)C1CC1C)C(=O)N1CCCC(N1)C(=O)OCC(C)(C)C2 [Compound 10′, (1S,2S)-N-((6^3S,4S,Z)-1^1-ethyl-1^2-(2-((S)-1-methoxyethyl)-5-(2-methyl-1,2,3,4-tetrahydroisoquinolin-7-yl)pyridin-3-yl)-10,10-dimethyl-5,7-dioxo-6^1,6^2,6^3,6^4,6^5,6^6-hexahydro-1^1H-8-oxa-2(4,2)-thiazola-1(5,3)-indola-6(1,3)-pyridazinacycloundecaphane-4-yl)-2-methylcyclopropane-1-carboxamide] | 1800 nM
10 | CCn1c(-c2cc(-c3nnc(C)n3C)cnc2C(C)OC)c2c3cc(ccc31)-c1csc(n1)CC(NC(=O)C1CC1C)C(=O)N1CCCC(N1)C(=O)OCC(C)(C)C2 [Compound 20′, (1S,2S)-N-((6^3S,4S,Z)-1^2-(5-(4,5-dimethyl-4H-1,2,4-triazol-3-yl)-2-((S)-1-methoxyethyl)pyridin-3-yl)-1^1-ethyl-10,10-dimethyl-5,7-dioxo-6^1,6^2,6^3,6^4,6^5,6^6-hexahydro-1^1H-8-oxa-2(4,2)-thiazola-1(5,3)-indola-6(1,3)-pyridazinacycloundecaphane-4-yl)-2-methylcyclopropane-1-carboxamide] | 87 nM
11 | CCn1c(-c2cc(-c3nc(C)no3)cnc2[C@H](C)OC)c2c3cc(ccc31)-c1csc(n1)C[C@H](NC(=O)[C@H]1C[C@@H]1C)C(=O)N1CCC[C@H](N1)C(=O)OCC(C)(C)C2 [Compound 21′, (1S,2S)-N-((6^3S,4S,Z)-1^1-ethyl-1^2-(2-((S)-1-methoxyethyl)-5-(3-methyl-1,2,4-oxadiazol-5-yl)pyridin-3-yl)-10,10-dimethyl-5,7-dioxo-6^1,6^2,6^3,6^4,6^5,6^6-hexahydro-1^1H-8-oxa-2(4,2)-thiazola-1(5,3)-indola-6(1,3)-pyridazinacycloundecaphane-4-yl)-2-methylcyclopropane-1-carboxamide] | 1770 nM
12 | CCn1c(-c2cc(-c3cc(C4CN(C)CCO4)on3)cnc2C(C)OC)c2c3cc(ccc31)-c1csc(n1)CC(NC(=O)C1C(C)C1C)C(=O)N1CCCC(N1)C(=O)OCC(C)(C)C2 [Compound 26′, (1r,2R,3S)-N-((6^3S,4S,Z)-1^1-ethyl-1^2-(2-((S)-1-methoxyethyl)-5-(5-((R)-4-methylmorpholin-2-yl)isoxazol-3-yl)pyridin-3-yl)-10,10-dimethyl-5,7-dioxo-6^1,6^2,6^3,6^4,6^5,6^6-hexahydro-1^1H-8-oxa-2(4,2)-thiazola-1(5,3)-indola-6(1,3)-pyridazinacycloundecaphane-4-yl)-2,3-dimethylcyclopropane-1-carboxamide] | 13 nM
13 | CCn1c(-c2cc(-c3cc(C4COCCN4C)on3)cnc2C(C)OC)c2c3cc(ccc31)-c1csc(n1)CC(NC(=O)C1C(C)C1C)C(=O)N1CCCC(N1)C(=O)OCC(C)(C)C2 [Compound 32′, (1r,2R,3S)-N-((6^3S,4S,Z)-1^1-ethyl-1^2-(2-((S)-1-methoxyethyl)-5-(5-((S)-4-methylmorpholin-3-yl)isoxazol-3-yl)pyridin-3-yl)-10,10-dimethyl-5,7-dioxo-6^1,6^2,6^3,6^4,6^5,6^6-hexahydro-1^1H-8-oxa-2(4,2)-thiazola-1(5,3)-indola-6(1,3)-pyridazinacycloundecaphane-4-yl)-2,3-dimethylcyclopropane-1-carboxamide] | 33 nM
